Structures are written as SMILES. In brackets after ≈: the same amount, converted by molar mass.

This data set in a line: Toxicity against Artemia salina after 24 hrs. Conditions: in vivo. It is filed as organism-based.
A word on the LC50: it is the concentration that kills 50% of the test population. Regarding `CC(C)C/C=C/[C@@H](C)[C@H]1CC[C@H]2[C@@H]3[C@@H](O)C=C4C[C@@H](O)CC[C@]4(CO)[C@H]3CC[C@]12C`, the median lethal concentration (LC50) at 24 h amounted to 30.7 µg/mL (≈ 73.7 µM).

Consider `CC(C)CCC[C@@H](C)[C@H]1CC[C@H]2[C@@H]3[C@@H](O)C=C4C[C@@H](O)CC[C@]4(CO)[C@@]3(O)CC[C@]12C`, for which the median lethal concentration (LC50) at 24 h came to 7.2 µg/mL (≈ 16.6 µM).

`CC(C)CCC[C@](C)(O)[C@H]1C(=O)C[C@H]2[C@@H]3CCC4=CC(=O)C=C[C@]4(C)[C@H]3CC[C@@]21CO` gave a median lethal concentration (LC50) at 24 h of 139 µg/mL (≈ 325 µM).

For the compound `CC(C)CCC[C@@H](C)[C@H]1CC[C@H]2[C@@H]3[C@@H](O)C=C4C[C@@H](O)CC[C@]4(CO)[C@H]3CC[C@]12C`, the median lethal concentration (LC50) at 24 h amounted to 55.6 µg/mL (≈ 133 µM).

The values are drawn from ChEMBL document CHEMBL1159011, “Four new bioactive polyhydroxylated sterols from the black coral Antipathes subpinnata” (J Nat Prod, 1992).
